Tests used:
Format in all cases: in vitro ADME
[1] = Hydrolytic half-life of AB23A in human plasma; settings: human plasma (25% diluted); 25% dilution human plasma, PBS pH 7.4; read-out: t1/2 (hydrolytic/metabolic half-life)
Method: (§1) The hydrolytic half-lives (t1/2) of AB23A in human plasma and different human tissue preparations were carried out according to the procedure of in vitro metabolic stability studies ([Ge et al., 2013]). The incubation mixture (1,000 μL) consisted of PBS (pH 7.4), enzyme sources (HLMs/HIMs/human plasma) and AB23A. 25% diluted human plasma was used, the protein concentrations of other tissue microsomes were 0.1 mg/mL. The 100 μL incubation mixture was moved to another containing ice-cold acetonitrile tube at different time points (0, 5, 15, 30, 45, 60, 90, 120 min). All samples were centrifuged for 30 min at 20,000 g 4°C and took the supernatants for LC-UV analysis.
(§2) The incubation conditions were as follows: the classic incubation system included 100 mM potassium phosphate buffer (PBS, pH 7.4), enzyme sources, and AB23A. In all incubations, PBS and enzyme sources were pre-incubation at 37 °C for 3 min and the reaction was started by adding AB23A (the organic solvent content at most 1%). After reacting 1 h, ice-cold acetonitrile was added to terminate the reaction and precipitate proteins. The samples were centrifuged for 30 min at 20000 × g, 4 °C, and the supernatants were taken for further LC-UV analysis.

[2] = Hydrolytic half-life of AB23A in human liver microsomes; settings: human liver microsomes (HLMs), HLMs 0.1 mg/mL, PBS pH 7.4, read-out: t1/2 (hydrolytic/metabolic half-life)
Method: as §1, §2

[3] = Hydrolytic half-life of AB23A in rat liver microsomes; settings: rat liver microsomes (RLMs), pH 7.4, RLMs 0.10 mg/mL, read-out: T1/2 (hydrolytic half-life)
Method: as §1, §2

[4] = AB23A hydrolysis in human kidney microsomes
Method: as §1, §2

## CC(=O)O[C@H](C[C@@H](C)C1=C2C[C@H](O)C3[C@@]4(C)CCC(=O)C(C)(C)C4CC[C@]3(C)[C@@]2(C)CC1)[C@H]1OC1(C)C (stereo partly shown) [AB23A, Alisol B 23-acetate]
[1]
  half-life: 115 ± 0.2 min
[2]
  half-life: 41 ± 0.01 min
[3]
  half-life: 55.63 ± 0.11 min
[4]
  Formation of AB (hydrolytic metabolite) in HKMs: trace amount of AB

From article PMC10117764, “The roles of serine hydrolases and serum albumin in alisol B 23-acetate hydrolysis in humans” (Frontiers in Pharmacology, 2023)
